Assay in all cases: relative viability (nuclei count vs DMSO), 5 days (fraction); higher = more cells survive
Compound in the assay “Venetoclax + Bortezomib”: CC1(C)CCC(CN2CCN(c3ccc(C(=O)NS(=O)(=O)c4ccc(NCC5CCOCC5)c([N+](=O)[O-])c4)c(Oc4cnc5[nH]ccc5c4)c3)CC2)=C(c2ccc(Cl)cc2)C1 [Venetoclax] + CC(C)C[C@H](NC(=O)[C@H](Cc1ccccc1)NC(=O)c1cnccn1)B(O)O [Bortezomib] (partner 0.002 µM)
In short, it runs like this: (§1)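 Cells from lung cancer lines were seeded into 1536-well plates and, one day later, dosed by pin tool. Treatments were either a single drug or a fixed dose of an anchor drug with five library-drug doses (not always all listed) in √10 steps. After 5 days, nuclei were stained in a one-step fixation (final 0.05% Triton X-100, 1% formaldehyde, 1 ug/ml Hoechst) and counted on 4× images, and relative viability is the treated-to-vehicle nuclei ratio, as the median of duplicate plates.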

Compound in the assay “Venetoclax + Pictilisib”: CC1(C)CCC(CN2CCN(c3ccc(C(=O)NS(=O)(=O)c4ccc(NCC5CCOCC5)c([N+](=O)[O-])c4)c(Oc4cnc5[nH]ccc5c4)c3)CC2)=C(c2ccc(Cl)cc2)C1 [Venetoclax] + CS(=O)(=O)N1CCN(Cc2cc3nc(-c4cccc5[nH]ncc45)nc(N4CCOCC4)c3s2)CC1 [Pictilisib] (partner 1 µM)
A digest of the protocol:
as §1

Compound in the assay “Venetoclax + Olaparib”: CC1(C)CCC(CN2CCN(c3ccc(C(=O)NS(=O)(=O)c4ccc(NCC5CCOCC5)c([N+](=O)[O-])c4)c(Oc4cnc5[nH]ccc5c4)c3)CC2)=C(c2ccc(Cl)cc2)C1 [Venetoclax] + O=C(c1cc(Cc2n[nH]c(=O)c3ccccc23)ccc1F)N1CCN(C(=O)C2CC2)CC1 [Olaparib] (partner 8 µM)
A digest of the protocol:
as §1

Compound in the assay “Selumetinib + Dasatinib”: Cn1cnc2c(F)c(Nc3ccc(Br)cc3Cl)c(C(=O)NOCCO)cc21 [Selumetinib] + Cc1nc(Nc2ncc(C(=O)Nc3c(C)cccc3Cl)s2)cc(N2CCN(CCO)CC2)n1 [Dasatinib] (partner 0.075 µM)
In short, it runs like this: as §1

With NCI-H650, the relative viability with Venetoclax + Bortezomib (first compound 0.01 µM) was 0.671; in the assay with Venetoclax + Bortezomib (first compound 0.03162 µM) it was 0.792; with Venetoclax + Bortezomib (first compound 0.3162 µM), 0.873; with Venetoclax + Bortezomib (first compound 1 µM) it was 0.817; with Venetoclax + Pictilisib (first compound 0.01 µM), 0.805; with Venetoclax + Pictilisib (first compound 0.03162 µM), 0.855. Moreover, the relative viability in the assay with Venetoclax + Pictilisib (first compound 0.3162 µM) is 0.842; in the assay with Venetoclax + Pictilisib (first compound 1 µM), 0.797; in the assay with Venetoclax + Olaparib (first compound 0.01 µM), 0.356; with Venetoclax + Olaparib (first compound 0.03162 µM), 0.425; in the assay with Venetoclax + Olaparib (first compound 0.1 µM), 0.375; with Venetoclax + Olaparib (first compound 0.3162 µM), 0.383. The relative viability with Venetoclax + Olaparib (first compound 1 µM) stood at 0.365; with Selumetinib + Dasatinib (first compound 0.02 µM), 0.518; with Selumetinib + Dasatinib (first compound 0.06325 µM), 0.578; with Selumetinib + Dasatinib (first compound 0.2 µM), 0.65; in the assay with Selumetinib + Dasatinib (first compound 0.6325 µM) it was 0.534.
As to A-427, the relative viability with Venetoclax + Bortezomib (first compound 0.01 µM) turned out to be 0.983; with Venetoclax + Bortezomib (first compound 0.03162 µM), 0.988; with Venetoclax + Bortezomib (first compound 0.1 µM) it was 0.982; in the assay with Venetoclax + Bortezomib (first compound 0.3162 µM) it was 1.08; in the assay with Venetoclax + Bortezomib (first compound 1 µM) it was 1.06; in the assay with Venetoclax + Pictilisib (first compound 0.01 µM), 0.651. The relative viability with Venetoclax + Pictilisib (first compound 0.03162 µM) is 0.809; in the assay with Venetoclax + Pictilisib (first compound 0.1 µM) it was 0.588; with Venetoclax + Pictilisib (first compound 0.3162 µM), 0.834; with Venetoclax + Pictilisib (first compound 1 µM) it was 0.705; with Venetoclax + Olaparib (first compound 0.01 µM), 0.709; with Venetoclax + Olaparib (first compound 0.03162 µM) it was 0.709. For the same cell line, the relative viability in the assay with Venetoclax + Olaparib (first compound 0.1 µM) worked out at 0.821; with Venetoclax + Olaparib (first compound 0.3162 µM), 0.657; in the assay with Venetoclax + Olaparib (first compound 1 µM), 0.778; with Selumetinib + Dasatinib (first compound 0.02 µM), 0.785; with Selumetinib + Dasatinib (first compound 0.06325 µM), 0.729; with Selumetinib + Dasatinib (first compound 0.2 µM) it was 0.555. Moreover, in the assay with Selumetinib + Dasatinib (first compound 0.6325 µM), the relative viability amounted to 0.407.
For EMC-BAC-2, the relative viability with Venetoclax + Bortezomib (first compound 0.01 µM) turned out to be 1.02; in the assay with Venetoclax + Bortezomib (first compound 0.03162 µM), 1.05; with Venetoclax + Bortezomib (first compound 0.1 µM), 0.958; in the assay with Venetoclax + Bortezomib (first compound 0.3162 µM), 1.02; with Venetoclax + Bortezomib (first compound 1 µM), 1.04; with Venetoclax + Pictilisib (first compound 0.01 µM) it was 0.459. Moreover, the relative viability in the assay with Venetoclax + Pictilisib (first compound 0.03162 µM) was found to be 0.56; in the assay with Venetoclax + Pictilisib (first compound 0.1 µM), 0.452; with Venetoclax + Pictilisib (first compound 0.3162 µM), 0.544; with Venetoclax + Pictilisib (first compound 1 µM), 0.535; with Venetoclax + Olaparib (first compound 0.01 µM), 0.503; with Venetoclax + Olaparib (first compound 0.03162 µM) it was 0.554. In addition, the relative viability with Venetoclax + Olaparib (first compound 0.1 µM) amounted to 0.5; in the assay with Venetoclax + Olaparib (first compound 0.3162 µM), 0.497; with Venetoclax + Olaparib (first compound 1 µM), 0.471; with Selumetinib + Dasatinib (first compound 0.02 µM), 0.352; with Selumetinib + Dasatinib (first compound 0.06325 µM), 0.419; in the assay with Selumetinib + Dasatinib (first compound 0.2 µM) it was 0.379. Moreover, in the assay with Selumetinib + Dasatinib (first compound 0.6325 µM), the relative viability came out at 0.391.
Regarding NCI-H520, the relative viability with Venetoclax + Bortezomib (first compound 0.01 µM) stood at 0.657; with Venetoclax + Bortezomib (first compound 0.03162 µM), 0.708; with Venetoclax + Bortezomib (first compound 0.1 µM) it was 0.431; with Venetoclax + Bortezomib (first compound 0.3162 µM) it was 0.628; with Venetoclax + Bortezomib (first compound 1 µM), 0.494; with Venetoclax + Pictilisib (first compound 0.01 µM) it was 0.304. Besides, the relative viability in the assay with Venetoclax + Pictilisib (first compound 0.03162 µM) is 0.351; in the assay with Venetoclax + Pictilisib (first compound 0.1 µM), 0.283; in the assay with Venetoclax + Pictilisib (first compound 0.3162 µM) it was 0.257; with Venetoclax + Pictilisib (first compound 1 µM), 0.286; in the assay with Venetoclax + Olaparib (first compound 0.01 µM), 0.388; in the assay with Venetoclax + Olaparib (first compound 0.03162 µM) it was 0.315. The relative viability with Venetoclax + Olaparib (first compound 0.3162 µM) stood at 0.327; in the assay with Venetoclax + Olaparib (first compound 1 µM) it was 0.387; in the assay with Selumetinib + Dasatinib (first compound 0.02 µM) it was 0.261; with Selumetinib + Dasatinib (first compound 0.06325 µM) it was 0.29; with Selumetinib + Dasatinib (first compound 0.2 µM), 0.278; in the assay with Selumetinib + Dasatinib (first compound 0.6325 µM) it was 0.306.
With LOU-NH91, the relative viability with Venetoclax + Bortezomib (first compound 0.01 µM) worked out at 0.487; with Venetoclax + Bortezomib (first compound 0.03162 µM), 0.477; with Venetoclax + Bortezomib (first compound 0.1 µM), 0.558; with Venetoclax + Bortezomib (first compound 0.3162 µM), 0.473; in the assay with Venetoclax + Bortezomib (first compound 1 µM) it was 0.456; with Venetoclax + Pictilisib (first compound 0.01 µM), 0.515. In addition, the relative viability with Venetoclax + Pictilisib (first compound 0.03162 µM) is 0.565; with Venetoclax + Pictilisib (first compound 0.1 µM), 0.54; in the assay with Venetoclax + Pictilisib (first compound 0.3162 µM) it was 0.523; in the assay with Venetoclax + Pictilisib (first compound 1 µM), 0.53; with Venetoclax + Olaparib (first compound 0.01 µM) it was 0.821; with Venetoclax + Olaparib (first compound 0.03162 µM), 0.88. The relative viability with Venetoclax + Olaparib (first compound 0.1 µM) amounted to 0.965; with Venetoclax + Olaparib (first compound 0.3162 µM) it was 0.919; in the assay with Venetoclax + Olaparib (first compound 1 µM), 0.856; with Selumetinib + Dasatinib (first compound 0.02 µM), 0.547; with Selumetinib + Dasatinib (first compound 0.06325 µM) it was 0.504; with Selumetinib + Dasatinib (first compound 0.2 µM) it was 0.495. Further, the relative viability in the assay with Selumetinib + Dasatinib (first compound 0.6325 µM) is 0.534.
As to HOP-62, the relative viability with Venetoclax + Bortezomib (first compound 0.01 µM) came to 0.886; with Venetoclax + Bortezomib (first compound 0.03162 µM), 1.17; in the assay with Venetoclax + Bortezomib (first compound 0.1 µM) it was 0.746; in the assay with Venetoclax + Bortezomib (first compound 0.3162 µM), 0.665; in the assay with Venetoclax + Bortezomib (first compound 1 µM) it was 0.625; in the assay with Venetoclax + Pictilisib (first compound 0.01 µM), 0.725. Further, the relative viability with Venetoclax + Pictilisib (first compound 0.03162 µM) is 1.04; in the assay with Venetoclax + Pictilisib (first compound 0.1 µM) it was 0.493; in the assay with Venetoclax + Pictilisib (first compound 0.3162 µM), 0.904; in the assay with Venetoclax + Pictilisib (first compound 1 µM), 0.634; with Venetoclax + Olaparib (first compound 0.01 µM) it was 0.318; with Venetoclax + Olaparib (first compound 0.03162 µM), 0.622. Further, the relative viability was found to be 0.359 with Venetoclax + Olaparib (first compound 0.1 µM); 0.203 in the assay with Venetoclax + Olaparib (first compound 0.3162 µM); 0.394 with Venetoclax + Olaparib (first compound 1 µM); 0.583 with Selumetinib + Dasatinib (first compound 0.02 µM); 0.526 with Selumetinib + Dasatinib (first compound 0.06325 µM); 0.387 with Selumetinib + Dasatinib (first compound 0.2 µM). For the same cell line, in the assay with Selumetinib + Dasatinib (first compound 0.6325 µM), the relative viability worked out at 0.249.
On to NCI-H1563, for which the relative viability stood at 0.792 with Venetoclax + Bortezomib (first compound 0.01 µM); 0.896 in the assay with Venetoclax + Bortezomib (first compound 0.03162 µM); 0.827 with Venetoclax + Bortezomib (first compound 0.1 µM); 0.944 in the assay with Venetoclax + Bortezomib (first compound 0.3162 µM); 0.78 with Venetoclax + Bortezomib (first compound 1 µM); 0.881 in the assay with Venetoclax + Pictilisib (first compound 0.01 µM). The relative viability with Venetoclax + Pictilisib (first compound 0.03162 µM) came to 0.653; with Venetoclax + Pictilisib (first compound 0.1 µM), 0.648; with Venetoclax + Pictilisib (first compound 0.3162 µM), 0.642; with Venetoclax + Pictilisib (first compound 1 µM), 0.698; in the assay with Selumetinib + Dasatinib (first compound 0.02 µM), 0.514; in the assay with Selumetinib + Dasatinib (first compound 0.06325 µM), 0.451. In addition, the relative viability was 0.498 with Selumetinib + Dasatinib (first compound 0.2 µM) and 0.528 in the assay with Selumetinib + Dasatinib (first compound 0.6325 µM).
In the case of NCI-H1792, the relative viability with Venetoclax + Bortezomib (first compound 0.01 µM) is 0.764; in the assay with Venetoclax + Bortezomib (first compound 0.03162 µM), 0.928; in the assay with Venetoclax + Bortezomib (first compound 0.1 µM), 1.05; with Venetoclax + Bortezomib (first compound 0.3162 µM), 0.924; with Venetoclax + Bortezomib (first compound 1 µM), 0.86; with Venetoclax + Pictilisib (first compound 0.01 µM) it was 0.228. Further, the relative viability with Venetoclax + Pictilisib (first compound 0.03162 µM) turned out to be 0.306; with Venetoclax + Pictilisib (first compound 0.1 µM), 0.161; with Venetoclax + Pictilisib (first compound 0.3162 µM) it was 0.262; in the assay with Venetoclax + Pictilisib (first compound 1 µM), 0.278; in the assay with Venetoclax + Olaparib (first compound 0.01 µM) it was 0.286; in the assay with Venetoclax + Olaparib (first compound 0.03162 µM), 0.463. In addition, the relative viability was 0.384 in the assay with Venetoclax + Olaparib (first compound 0.1 µM); 0.561 with Venetoclax + Olaparib (first compound 0.3162 µM); 0.339 with Venetoclax + Olaparib (first compound 1 µM); 0.787 with Selumetinib + Dasatinib (first compound 0.02 µM); 0.802 with Selumetinib + Dasatinib (first compound 0.06325 µM); 0.704 with Selumetinib + Dasatinib (first compound 0.2 µM). The relative viability with Selumetinib + Dasatinib (first compound 0.6325 µM) worked out at 0.597.
